The test system of the assay is platelet aggregation in dog PRP. Description: In-vitro platelet aggregation in PRP (ADP-induced, dog platelet-rich plasma). In kind it is cell-based. The following applies: Canis lupus familiaris; for IC50: concentration inhibiting aggregation by 50%; for inhibition at 10 µM: test concentration of 10 μM. The method, then: Compounds of the invention were evaluated by an […] assay to determine compound activity as an inhibitors of platelet aggregation.
Healthy male or female dogs were fasted for 8 hours prior to drawing blood; then 30 mL whole blood was collected using a butterfly needle and 30 cc plastic syringe with 3 ml of 0.129M buffered sodium citrate (3.8%). The syringe was rotated carefully as blood was drawn to mix the citrate. Platelet-rich plasma (PRP) was prepared by centrifugation at 975×g for 3.17 minutes at room temperature, allowing the centrifuge to coast to a stop without braking. The PRP was removed from the blood with a plastic pipette and placed in a plastic capped, 50 ml Corning conical sterile centrifuge tube which was held at room temperature. Platelet poor plasma (PPP) was prepared by centrifuging the remaining blood at 2000×g for 15 minutes at room temperature allowing the centrifuge to coast to a stop without braking. The PRP was adjusted with PPP to a count of 2-3×10^8 s platelets per ml. 400 μL of the PRP preparation and 50 μL of the compound to be tested or saline were preincubated for 1 minute at 37° C. in a BioData aggregometer (BioData, Horsham, Pa.). 50 μL of adenosine 5'diphosphate (ADP) (50 μm final concentration) was added to the cuvettes and the aggregation was monitored for 1 minute. All compounds are tested in duplicate. Inhibition of aggregation for each sample was determined using the formula: % inhibition=(Tinh -Tbas)/(Tagg -Tbas ×100 where Tbas is % of light transmission in PRP (baseline), Tagg is % of light transmission in the aggregated PRP sample (saline control) and Tinh is % of light transmission in the sample containing the inhibitor.

As for `Cc1ccc(S(=O)(=O)NCC(CC(=O)O)NC(=O)CCCCc2ccc(C(=N)N)cc2)cc1` (racemic) [Example 1, (±)-3-[[5-[4-(Aminoiminomethyl)phenyl]-1-oxopentyl]amino]-4-[[(4-methylphenyl)sulfonyl]amino]butanoic acid], the IC50 is 1 µM and the inhibition at 10 µM amounted to 100%.
In the same order, the values of `COc1ccc(S(=O)(=O)NCC(CC(=O)O)NC(=O)CCCCc2ccc(C(=N)N)cc2)cc1` (racemic) [Example 2, (±)-3-[[5-[4-(Aminoiminomethyl)phenyl]-1-oxopentyl]amino]-4-[[(4-methoxyphenyl)sulfonyl]amino]butanoic Acid] are 8 µM and 100%.
Compound `CCOC(=O)CC(CNS(=O)(=O)c1ccc(C)cc1)NC(=O)CCCCc1ccc(C(=N)N)cc1` (racemic) [Example 3, (±) Ethyl-3-[[5-[5-(Aminoiminomethyl)phenyl]-1-oxopentyl]amino]-4-[[(4-methylphenyl)sulfonyl]amino]butanoate] registered an inhibition at 10 µM of 20%.

For the origin of these results see US5264457A, “Phenyl amidines sulfonamides useful as platelet aggregation inhibitors” (G. D. Searle & Co., priority 1992, dated 1993).
